The source of these data is article PMC4795541, “A Rapid and Quantitative Flow Cytometry Method for the Analysis of Membrane Disruptive Antimicrobial Activity” (PLoS ONE, 2016).

Values after ≈ are worked out from the molar mass of the structure shown. Marks after values point to notes of the source that are not given here. Where a SMILES comes first, the peptide text is derived from it. Where no end group is shown, it is not given here. [ ]: non-standard residue; d: D form. Phe(ol) = N[C@H](CO)Cc1ccccc1; Dab = NCC[C@H](N)C(=O)O; Dap = NC[C@H](N)C(=O)O; Aib = CC(C)(N)C(=O)O

The subject of one series is E. aerogenes ATCC 13048. Conditions: E. aerogenes ATCC 13048; 90 min incubation; average of 3 assays ± SD. The method, boiled down: (§1)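 Peptides dissolved in DMSO and serially diluted 250–0.244 μM in medium. Inoculum 2.5 × 10^5 cells/well, late-exponential phase. LB aerobic; S. mutans in Todd Hewitt, anaerobic.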
Series [1] deals with S. aureus (MRSA) ATCC 43300. To be noted: S. aureus (MRSA) ATCC 43300; 90 min incubation; average of 3 assays ± SD. A digest of the protocol:
as §1

The next series relates to K. pneumoniae ATCC 13883. To be noted: K. pneumoniae ATCC 13883; 90 min incubation; average of 3 assays ± SD. A digest of the protocol:
as §1

For a further series, the system named is E. coli ATCC 25922. Conditions: E. coli ATCC 25922; 90 min incubation; average of 3 assays ± SD. A digest of the protocol: as §1
Series [2] deals with S. aureus (MSSA) ATCC 29213. To be noted: S. aureus (MSSA) ATCC 29213; 90 min incubation; average of 3 assays ± SD. The method, boiled down:
as §1

For series [3], the system named is P. aeruginosa strain PAO1-LAC, ATCC 47085. To be noted: P. aeruginosa PAO1-LAC, ATCC 47085; 90 min incubation; average of 3 assays ± SD. The method, boiled down: as §1
Series [4] concerns A. baumannii strain 2208, ATCC 19606. Conditions: A. baumannii strain 2208, ATCC 19606; 90 min incubation; average of 3 assays ± SD. The method, boiled down: as §1
A further series relates to S. mutans Ingbritt. The series is described as follows: MDC, flow cytometry Syto9/PI membrane disruption assay. To be noted: 90 min peptide/bacteria incubation, average of 3 assays ± SD. It is filed as cell-based, Streptococcus mutans. From the text:
The bacterial strains; Fusobacterium nucleatum ATCC 25586, Streptococcus mutans Ingbritt, Staphylococcus aureus (MSSA) ATCC 29213; Staphylococcus aureus (MRSA) ATCC 43300; Enterococcus faecalis ATCC 29212; Enterobacter aerogenes ATCC 13048; Pseudomonas aeruginosa strain PAO1-LAC, ATCC 47085; Klebsiella pneumoniae ATCC 13883; Acinetobacter baumannii strain 2208, ATCC 19606; Escherichia coli ATCC 25922 lyophilised or glycerol stocks were obtained from the culture collection of the Oral Health Cooperative Research Centre, The Melbourne Dental School, University of Melbourne, Australia. These strains were selected for this study as they are widely used in antimicrobial studies and are considered to be important pathogens and major targets for antibiotic resistant studies. Bacteria were grown aerobically and maintained by passage at ambient temperature (E. coli, K. pneumoniae, A. baumannii and S. aureus strains) or at 37°C (P. aeruginosa, E. faecalis and E. aerogenes) on horse blood agar (10% v/v defibrinated horse blood, 4.4% w/v Oxoid Blood Agar Base No. 2). S. mutans and F. nucleatum were grown anaerobically (MK3 anaerobic workstation, Don Whitley Scientific Limited, England) and maintained by passage at 37°C on Todd Hewitt agar (3.6% w/v Oxoid Todd-Hewitt Broth, 1.5% w/v sucrose, 1.5% w/v BactoTM Agar, 0.8% w/v Oxoid Yeast Extract) or horse blood agar, respectively. For the antimicrobial peptide assays a 20 mL starter culture was produced by taking single colonies from blood or Todd Hewitt agar plates, respectively, to inoculate either: Luria Broth (LB; 1% w/v BactoTM Tryptone, 1% w/v NaCl, 0.5% w/v Oxoid Yeast Extract, pH 7.5, Thermo Scientific Pty, Ltd, Sydney, Australia) for bacteria; E. coli, K. pneumoniae, P. aeruginosa, A. baumannii, E. faecalis, E. aerogenes and S. aureus which were grown aerobically at 37°C, or Todd Hewitt broth (3.6% w/v Oxoid Todd-Hewitt Broth, 1.5% w/v sucrose, 0.8% w/v Oxoid Yeast 9 Extract) for S. mutans, or Brain Heart Infusion broth (BHI; 3.7% w/v Oxoid BHI, 0.05% w/v L-cysteine) for F. nucleatum which were both grown anaerobically at 37°C. After overnight incubation, 0.5–2.0 mL of the starter culture was used to inoculate the appropriate fresh broth (200 mL) and growth monitored at 650 nm using a spectrophotometer (model 275E; Perkin-Elmer, Sydney, Australia) with culture purity checked by microscopic examination and culture. Bacteria were harvested during late exponential growth phase and viability and bacteria/mL determined using a BacLight viability kit (Invitrogen, Sydney, Australia) and a Quanta SC-MPL flow cytometer (Beckman coulter Pty, Ltd, Sydney, Australia).
Antibacterial assays were undertaken to determinate the minimum inhibitory concentration (MIC), minimum bactericidal concentration (MBC) and minimum membrane disruptive concentration (MDC) of each of the antimicrobial peptides (AMP) and AMP analogues (S1 Table). For each bacterim a stock solution (2.5 × 10^6 cells/mL) in the respective media was made and an aliquot incubated with AMPs within 15 minutes from viable cell count and stock preparation. All AMPs were dissolved in DMSO and a 500 μM stock solution prepared by adding the respective media and serial dilutions (250–0.244 μM) of the AMP in media (100 μL/well) made just prior addition of bacteria. […] After the 90 minute incubation period the antimicrobial activity (MIC, MBC and MDC) was determined as follows;
(A flow cytometer gives signals particle by particle.)

In a further series the test system is sheep red blood cells. The experiment in a line: Hemolysis assay. It counts as cell-based. Conditions: for Therapeutic Index (hemolysis): HC50/MDC50 (F. nucleatum), given as x : 1. As to the method:
Fresh sheep red blood cells in Alsever’s solution (RBCs, Equicell, Victoria, Australia) were diluted 1 in 20 in PBS (pH 7.4), pelleted by centrifugation, and washed three times in PBS (1000 g, 10 min). The RBCs were counted using a cell counter (Coulter Particle Counter Z series, Beckman Coulter) and diluted to a final concentration of 2 × 10^7 cells/mL. […] Following incubation, the RBCs were pelleted centrifuged (1000 g, 10 min) and the amount of haemoglobin in 100 μL aliquots determined by measuring the absorbance at 405 nm using a microplate reader (PerkinElmer 1420 Multilabel Counter VICTOR3). Positive and negative controls for hemolysis were taken as RBC lysed with 0.5% Triton X-100 (1:1 v/v) and RBC suspension in PBS, respectively. The percentage of hemolysis was calculated using the following formula: % Hemolysis = [(A405 test sample—A405 negative control) / (A405 positive control—A405 negative control)] × 100
The percentage hemolysis was plotted against peptide concentration and linear regression analysis was used to determine the hemolytic concentration needed to lyse 50% (HC50) of RBCs.

Where [5] appears, read: sheep RBCs 2 × 10^7 cells/mL in PBS pH 7.4, 2 h at 37°C, 5% CO2, A405, linear regression, maximum peptide concentration = 1000 µM.

By MBC is commonly meant the lowest tested concentration that kills the bacteria rather than only halting them. Lower therefore signals greater bactericidal potency.

Take `CC(=O)NC(C)(C)C(=O)N1CCC[C@H]1C(=O)NC(C)(C)C(=O)N[C@@H](C)C(=O)NC(C)(C)C(=O)N[C@@H](C)C(=O)N[C@@H](CCC(N)=O)C(=O)NC(C)(C)C(=O)N[C@H](C(=O)NC(C)(C)C(=O)NCC(=O)N[C@@H](CC(C)C)C(=O)NC(C)(C)C(=O)N1CCC[C@H]1C(=O)N[C@H](C(=O)NC(C)(C)C(=O)NC(C)(C)C(=O)N[C@@H](CCC(=O)O)C(=O)N[C@@H](CCC(N)=O)C(=O)N[C@H](CO)Cc1ccccc1)C(C)C)C(C)C` [Alamethicin] (Ac-[Aib]P[Aib]A[Aib]AQ[Aib]V[Aib]GL[Aib]PV[Aib][Aib]EQ[Phe(ol)]; N-terminus assumed): the MBC in the series with E. aerogenes ATCC 13048 was greater than 250 µM; in series [1], 59.2 ± 1.7 µM (≈ 116 µg/mL); against K. pneumoniae ATCC 13883, greater than 250 µM; against E. coli ATCC 25922, greater than 250 µM; in series [2], 27.9 ± 6.9 µM (≈ 54.8 µg/mL); in series [3], greater than 250 µM. For the same molecule, the MBC in [4] is greater than 250 µM. This molecule also yielded an MDC in the series on S. mutans Ingbritt of 41.9 ± 8.3 µM.

For `CC[C@H](C)[C@H](NC(=O)CN)C(=O)NCC(=O)N[C@@H](CCN)C(=O)N[C@@H](Cc1ccccc1)C(=O)N[C@@H](CC(C)C)C(=O)N[C@@H](Cc1c[nH]cn1)C(=O)N[C@@H](CO)C(=O)N[C@@H](C)C(=O)N[C@@H](CCN)C(=O)N[C@@H](CCN)C(=O)N[C@@H](Cc1ccccc1)C(=O)NCC(=O)N[C@@H](CCN)C(=O)N[C@@H](C)C(=O)N[C@@H](Cc1ccccc1)C(=O)N[C@H](C(=O)NCC(=O)N[C@@H](CCC(=O)O)C(=O)N[C@H](C(=O)N[C@@H](CCSC)C(=O)N[C@@H](CC(N)=O)C(=O)N[C@@H](CO)C(N)=O)[C@@H](C)CC)C(C)C` [Magainin-Dab] (H-GIG[Dab]FLHSA[Dab][Dab]FG[Dab]AFVGEIMNS-NH2; N-terminus assumed), in the series with sheep red blood cells, the “Therapeutic Index (hemolysis)” value is >182 : 1. The “Hemolysis (HC50)” value in the series with sheep red blood cells (pH 7.4) was greater than 1000 µM. Moreover, the MDC with S. mutans Ingbritt is listed as >200^c μM.

As to `CC[C@H](C)[C@H](NC(=O)CN)C(=O)NCC(=O)N[C@@H](CN)C(=O)N[C@@H](Cc1ccccc1)C(=O)N[C@@H](CC(C)C)C(=O)N[C@@H](Cc1c[nH]cn1)C(=O)N[C@@H](CO)C(=O)N[C@@H](C)C(=O)N[C@@H](CN)C(=O)N[C@@H](CN)C(=O)N[C@@H](Cc1ccccc1)C(=O)NCC(=O)N[C@@H](CN)C(=O)N[C@@H](C)C(=O)N[C@@H](Cc1ccccc1)C(=O)N[C@H](C(=O)NCC(=O)N[C@@H](CCC(=O)O)C(=O)N[C@H](C(=O)N[C@@H](CCSC)C(=O)N[C@@H](CC(N)=O)C(=O)N[C@@H](CO)C(N)=O)[C@@H](C)CC)C(C)C` [Magainin-Dap] (H-GIG[Dap]FLHSA[Dap][Dap]FG[Dap]AFVGEIMNS-NH2; N-terminus assumed), the “Therapeutic Index (hemolysis)” value in the series with sheep red blood cells is reported as >67 : 1. The “Hemolysis (HC50)” value in the series with sheep red blood cells (pH 7.4) is greater than 1000 µM. Further, the MDC in the series with S. mutans Ingbritt is >200^c μM.

Consider “GIGKFLHSAKKFGKAFVGEIMNS-NH2 [Magainin II]”, for which the MBC is greater than 250 µM in the series with E. aerogenes ATCC 13048; greater than 250 µM in [1]; 142.3 ± 19.5 µM in the series with K. pneumoniae ATCC 13883; 48.1 ± 12.4 µM in the series on E. coli ATCC 25922; greater than 250 µM in [2]; 56.3 ± 4.2 µM in series [3]. In addition, the MBC in [4] was found to be 20.0 ± 1.0 µM. Also, in the series on sheep red blood cells (setting [5]), the “Hemolysis (HC50)” value worked out at 479.5 ± 42.9 µM.

With “GIGRFLHSARRFGRAFVGEIMNS-NH2 [Magainin-Arg]”, the “Therapeutic Index (hemolysis)” value in the series with sheep red blood cells is on record as 100.8 : 1. For the same molecule, the “Hemolysis (HC50)” value in the series on sheep red blood cells (pH 7.4) was determined as 251.9 ± 48.2 µM. For the same molecule, the MDC in the series with S. mutans Ingbritt is 42.5±5.7^c μM.

For “GIGXFLHSAXXFGXAFVGEIMNS-CONH2 [Magainin-Orn, magainin II analogue, all lysine residues substituted with ornithine]”, the “Therapeutic Index (hemolysis)” value with sheep red blood cells was 126.5 : 1. Also, in the series on sheep red blood cells (setting [5]), the “Hemolysis (HC50)” value came to 721.1 ± 65.3 µM. The MDC with S. mutans Ingbritt was >200^c μM.
